Reference: the NIST ThermoML archive (doi:10.1016/j.fluid.2007.07.059)

What was measured:
[1] = Gas, Hot wire method
[2] = xn = mol fraction of the nth substance listed; conditions: Gas, Hot wire method

CCC(C)C [2-methylbutane]
thermal conductivity [W/m/K], [1]
Conditions | 342.97 K | 352.61 K | 375 K | 390.75 K
100 kPa | 0.01954 | 0.02064 | 0.02347 | 0.02574
200 kPa | 0.0196 | 0.02071 | 0.02356 | 0.0258
500 kPa | 0.01976 | 0.02093 | 0.02385 | 0.026

CCC(C)C [2-methylbutane] + CCCCC
thermal conductivity [W/m/K], [2]
Conditions | 100 kPa | 200 kPa | 500 kPa
345.26 K, x1 = 0.6232 | 0.01956 | 0.01963 | 0.01984
345.54 K, x1 = 0.1695 | 0.01924 | 0.01936 | 0.01973
346.28 K, x1 = 0.3293 | 0.01932 | 0.01941 | 0.0197
361.52 K, x1 = 0.3293 | 0.02107 | 0.02119 | 0.02156
362.08 K, x1 = 0.1695 | 0.02122 | 0.02131 | 0.02155
362.43 K, x1 = 0.6232 | 0.02163 | 0.02169 | 0.02187
378.03 K, x1 = 0.6232 | 0.02381 | 0.02382 | 0.02387
378.23 K, x1 = 0.1695 | 0.02312 | 0.02327 | 0.02372
378.57 K, x1 = 0.3293 | 0.02344 | 0.02346 | 0.02351
394.05 K, x1 = 0.6232 | 0.02586 | 0.02591 | 0.02605
394.45 K, x1 = 0.1695 | 0.02554 | 0.02558 | 0.02571
395.51 K, x1 = 0.3293 | 0.02569 | 0.02572 | 0.02578

CCCCC [pentane]
thermal conductivity [W/m/K], [1]
Conditions | 342.97 K | 366.02 K | 380.86 K | 407.37 K
100 kPa | 0.01889 | 0.02169 | 0.02371 | 0.02719
200 kPa | 0.01895 | 0.02176 | 0.02378 | 0.02728
500 kPa | 0.01915 | 0.02198 | 0.02398 | 0.02754
